Reference: patent publication US20070128217A1 (priority 2003, published 2007)

Key:
[1] = tested on: rabbit serum obtained by immunizing a rabbit with the SARS-CoV strain Frankfurt 1; assay type: binding; parameters: Binding of a rabbit serum to linear peptides / Binding of a rabbit serum to looped peptides / Rabbit serum linear peptides / Rabbit serum looped peptides / Binding of a rabbit serum to linear peptides of protein N of SARS-CoV Urbani (Rabbit serum linear peptides) / Binding of a rabbit serum to looped/cyclic peptides of protein N of SARS-CoV Urbani (Rabbit serum looped peptides): unit not given here
[2] = tested on: control sera (pooled serum of ten healthy LUMC hospital workers; commercial negative donor pooled serum from the Dutch bloodbank); assay type: binding, human; parameters: Binding of Control serum LUMC to linear peptides / Binding of Control serum Blood-bank to linear peptides / Binding of Control serum LUMC to looped peptides / Binding of Control Serum Blood-Bank to Looped peptides / Binding of Control serum LUMC to linear peptides of the protein M of SARS-CoV Urbani / Binding of Control serum Blood-bank to linear peptides of the protein M of SARS-CoV Urbani / Binding of Control serum LUMC to looped peptides of the protein M of SARS-CoV Urbani / Binding of Control Serum Blood-Bank to Looped peptides of the protein M of SARS-CoV Urbani: unit not given here
[3] = tested on: antibodies in sera from SARS patients (sera 1a, 1b, 2, 6, 37, 62, London, SARS-yellow, SARS-green); assay type: binding, human; parameters: Binding of serum 6 to linear peptides of protein X1 of SARS-CoV Urbani / Binding of serum 37 to linear peptides of protein X1 of SARS-CoV Urbani / Binding of serum 6 to looped/cyclic peptide (PEPSCAN-ELISA) / Binding of serum 37 to looped/cyclic peptide (PEPSCAN-ELISA) / Binding of serum 37 to looped/cyclic peptides of protein X1 of SARS-CoV Urbani / Binding of serum 6 to linear peptides of protein X2 / Binding of serum 37 to linear peptides of protein X2 / Binding of serum 37 to looped/cyclic peptides of protein X2 of SARS-CoV Urbani / Binding of serum 6 to linear peptides of protein M of SARS-CoV Urbani / Binding of serum 37 to linear peptides of protein M of SARS-CoV Urbani / Binding of serum 6 to looped/cyclic peptides of protein M of SARS-CoV Urbani / Binding of serum 37 to looped/cyclic peptides of protein M of SARS-CoV Urbani / Binding of serum 6 to linear peptides of protein X3 of SARS-CoV Urbani / Binding of serum 37 to linear peptides of protein X3 of SARS-CoV Urbani / Binding of serum 37 to looped/cyclic peptides of protein X3 of SARS-CoV Urbani / Binding of serum 6 to linear peptides of protein X4 of SARS-CoV Urbani / Binding of serum 37 to linear peptides of protein X4 of SARS-CoV Urbani / Binding of serum 37 to looped/cyclic peptides of protein X4 of SARS-CoV Urbani / Binding of serum 6 to linear peptides of protein X5 of SARS-CoV Urbani / Binding of serum 37 to linear peptides of protein X5 of SARS-CoV Urbani / Binding of serum 37 to looped/cyclic peptides of protein X5 of SARS-CoV Urbani / Binding of serum 6 to linear peptides of protein N of SARS-CoV Urbani / Binding of serum 37 to linear peptides of protein N of SARS-CoV Urbani / Binding of serum 6 to linear peptide (PEPSCAN-ELISA) / Binding of serum 1a to looped/cyclic peptides of protein N of SARS-CoV Urbani / Binding of serum 1b to looped/cyclic peptides of protein N of SARS-CoV Urbani / Binding of serum 2 to looped/cyclic peptides of protein N of SARS-CoV Urbani / Binding of serum 6 to looped/cyclic peptides of protein N of SARS-CoV Urbani / Binding of serum 37 to looped/cyclic peptides of protein N of SARS-CoV Urbani / Binding of serum 62 to looped/cyclic peptides of protein N of SARS-CoV Urbani / Binding of serum London to looped/cyclic peptides of protein N of SARS-CoV Urbani / Binding of serum SARS-green to looped/cyclic peptides of protein N of SARS-CoV Urbani: unit not given here

## NLVIGFLFLAWIMLL
[1]
  Rabbit serum linear peptides: 0.2
  Rabbit serum looped peptides: 0.2
[2]
  Binding of Control Serum Blood-Bank to Looped peptides of the protein M of SARS-CoV Urbani: 0.6
  Binding of Control serum Blood-bank to linear peptides of the protein M of SARS-CoV Urbani: 0.5
  Binding of Control serum LUMC to linear peptides of the protein M of SARS-CoV Urbani: 0.3
  Binding of Control serum LUMC to looped peptides of the protein M of SARS-CoV Urbani: 0.8
[3]
  Binding of serum 1a to linear peptides of protein M of SARS-CoV Urbani: 0.7
  Binding of serum 1a to looped/cyclic peptides of protein M of SARS-CoV Urbani: 0.7
  Binding of serum 1b to linear peptides of protein M of SARS-CoV Urbani: 0.5
  Binding of serum 1b to looped/cyclic peptides of protein M of SARS-CoV Urbani: 0.6
  Binding of serum 2 to linear peptides of protein M of SARS-CoV Urbani: 0.5
  Binding of serum 2 to looped/cyclic peptides of protein M of SARS-CoV Urbani: 0.5
  Binding of serum 6 to linear peptides of protein M of SARS-CoV Urbani: 0.3
  Binding of serum 6 to looped/cyclic peptides of protein M of SARS-CoV Urbani: 0.6
  Binding of serum 37 to linear peptides of protein M of SARS-CoV Urbani: 0.6
  Binding of serum 37 to looped/cyclic peptides of protein M of SARS-CoV Urbani: 0.6
  Binding of serum 62 to linear peptides of protein M of SARS-CoV Urbani: 0.7
  Binding of serum 62 to looped/cyclic peptides of protein M of SARS-CoV Urbani: 0.7
  Binding of serum London to linear peptides of protein M of SARS-CoV Urbani: 0.3
  Binding of serum London to looped/cyclic peptides of protein M of SARS-CoV Urbani: 0.3
  Binding of serum SARS-green to linear peptides of protein M of SARS-CoV Urbani: 0.2
  Binding of serum SARS-green to looped/cyclic peptides of protein M of SARS-CoV Urbani: 0.3
  Binding of serum SARS-yellow to linear peptides of protein M of SARS-CoV Urbani: 0.0
  Binding of serum SARS-yellow to looped/cyclic peptides of protein M of SARS-CoV Urbani: 0.5

## GTIVTRPLMESELVI
[1]
  Rabbit serum linear peptides: 0.1
  Rabbit serum looped peptides: 0.5
[2]
  Binding of Control Serum Blood-Bank to Looped peptides of the protein M of SARS-CoV Urbani: 0.8
  Binding of Control serum Blood-bank to linear peptides of the protein M of SARS-CoV Urbani: 0.7
  Binding of Control serum LUMC to linear peptides of the protein M of SARS-CoV Urbani: 0.6
  Binding of Control serum LUMC to looped peptides of the protein M of SARS-CoV Urbani: 1.0
[3]
  Binding of serum 1a to linear peptides of protein M of SARS-CoV Urbani: 0.8
  Binding of serum 1b to linear peptides of protein M of SARS-CoV Urbani: 0.7
  Binding of serum 2 to linear peptides of protein M of SARS-CoV Urbani: 0.7
  Binding of serum 6 to linear peptides of protein M of SARS-CoV Urbani: 0.5
  Binding of serum 37 to linear peptides of protein M of SARS-CoV Urbani: 0.6
  Binding of serum 62 to linear peptides of protein M of SARS-CoV Urbani: 0.7
  Binding of serum London to linear peptides of protein M of SARS-CoV Urbani: 0.3
  Binding of serum SARS-green to linear peptides of protein M of SARS-CoV Urbani: 0.7
  Binding of serum SARS-yellow to linear peptides of protein M of SARS-CoV Urbani: 0.2
  Recognition of the peptide by sera of SARS-CoV infected individuals, and form (linear, looped/cyclic) in which it is recognized: recognized in looped/cyclic form

## YRINWVTGGIAIAMA
[1]
  Rabbit serum linear peptides: 0.4
  Rabbit serum looped peptides: 0.3
[2]
  Binding of Control Serum Blood-Bank to Looped peptides of the protein M of SARS-CoV Urbani: 0.7
  Binding of Control serum Blood-bank to linear peptides of the protein M of SARS-CoV Urbani: 0.8
  Binding of Control serum LUMC to linear peptides of the protein M of SARS-CoV Urbani: 0.6
  Binding of Control serum LUMC to looped peptides of the protein M of SARS-CoV Urbani: 0.6
[3]
  Binding of serum 1a to linear peptides of protein M of SARS-CoV Urbani: 0.7
  Binding of serum 1a to looped/cyclic peptides of protein M of SARS-CoV Urbani: 0.6
  Binding of serum 1b to linear peptides of protein M of SARS-CoV Urbani: 0.6
  Binding of serum 1b to looped/cyclic peptides of protein M of SARS-CoV Urbani: 0.4
  Binding of serum 2 to linear peptides of protein M of SARS-CoV Urbani: 0.7
  Binding of serum 2 to looped/cyclic peptides of protein M of SARS-CoV Urbani: 0.6
  Binding of serum 6 to linear peptides of protein M of SARS-CoV Urbani: 0.3
  Binding of serum 6 to looped/cyclic peptides of protein M of SARS-CoV Urbani: 0.5
  Binding of serum 37 to linear peptides of protein M of SARS-CoV Urbani: 0.8
  Binding of serum 37 to looped/cyclic peptides of protein M of SARS-CoV Urbani: 0.5
  Binding of serum 62 to linear peptides of protein M of SARS-CoV Urbani: 0.8
  Binding of serum 62 to looped/cyclic peptides of protein M of SARS-CoV Urbani: 0.6
  Binding of serum London to linear peptides of protein M of SARS-CoV Urbani: 0.3
  Binding of serum London to looped/cyclic peptides of protein M of SARS-CoV Urbani: 0.2
  Binding of serum SARS-green to linear peptides of protein M of SARS-CoV Urbani: 0.3
  Binding of serum SARS-green to looped/cyclic peptides of protein M of SARS-CoV Urbani: 0.0
  Binding of serum SARS-yellow to linear peptides of protein M of SARS-CoV Urbani: 0.1
  Binding of serum SARS-yellow to looped/cyclic peptides of protein M of SARS-CoV Urbani: 0.8

## TEVYYQLESTQITTD
[1]
  Binding of a rabbit serum to linear peptides: 0.1
  Binding of a rabbit serum to looped peptides: 0.4
[2]
  Binding of Control Serum Blood-Bank to Looped peptides: 0.4
  Binding of Control serum Blood-bank to linear peptides: 0.5
  Binding of Control serum LUMC to linear peptides: 0.5
  Binding of Control serum LUMC to looped peptides: 0.4
[3]
  Binding of serum 1a to linear peptides of protein X1 of SARS-CoV Urbani: 0.8
  Binding of serum 1a to looped/cyclic peptides of protein X1 of SARS-CoV Urbani: 0.5
  Binding of serum 1b to linear peptides of protein X1 of SARS-CoV Urbani: 0.8
  Binding of serum 1b to looped/cyclic peptides of protein X1 of SARS-CoV Urbani: 0.5
  Binding of serum 2 to linear peptides of protein X1 of SARS-CoV Urbani: 0.5
  Binding of serum 2 to looped/cyclic peptides of protein X1 of SARS-CoV Urbani: 0.2
  Binding of serum 6 to linear peptides of protein X1 of SARS-CoV Urbani: 0.5
  Binding of serum 6 to looped/cyclic peptides of protein X1 of SARS-CoV Urbani: 0.3
  Binding of serum 37 to linear peptides of protein X1 of SARS-CoV Urbani: 0.9
  Binding of serum 37 to looped/cyclic peptides of protein X1 of SARS-CoV Urbani: 0.5
  Binding of serum 62 to linear peptides of protein X1 of SARS-CoV Urbani: 0.6
  Binding of serum 62 to looped/cyclic peptides of protein X1 of SARS-CoV Urbani: 0.4
  Binding of serum London to linear peptides of protein X1 of SARS-CoV Urbani: 0.4
  Binding of serum London to looped/cyclic peptides of protein X1 of SARS-CoV Urbani: 0.2
  Binding of serum SARS-green to linear peptides of protein X1 of SARS-CoV Urbani: 0.5
  Binding of serum SARS-green to looped/cyclic peptides of protein X1 of SARS-CoV Urbani: 0.3
  Binding of serum SARS-yellow to linear peptides of protein X1 of SARS-CoV Urbani: 0.6
  Binding of serum SARS-yellow to looped/cyclic peptides of protein X1 of SARS-CoV Urbani: 0.3

## LFARTRSMWSFNPET
[1]
  Rabbit serum linear peptides: 0.1
  Rabbit serum looped peptides: 0.3
[2]
  Binding of Control Serum Blood-Bank to Looped peptides of the protein M of SARS-CoV Urbani: 0.6
  Binding of Control serum Blood-bank to linear peptides of the protein M of SARS-CoV Urbani: 0.7
  Binding of Control serum LUMC to linear peptides of the protein M of SARS-CoV Urbani: 0.8
  Binding of Control serum LUMC to looped peptides of the protein M of SARS-CoV Urbani: 0.6
[3]
  Binding of serum 1a to linear peptides of protein M of SARS-CoV Urbani: 0.8
  Binding of serum 1a to looped/cyclic peptides of protein M of SARS-CoV Urbani: 0.7
  Binding of serum 1b to linear peptides of protein M of SARS-CoV Urbani: 0.7
  Binding of serum 1b to looped/cyclic peptides of protein M of SARS-CoV Urbani: 0.5
  Binding of serum 2 to linear peptides of protein M of SARS-CoV Urbani: 0.5
  Binding of serum 2 to looped/cyclic peptides of protein M of SARS-CoV Urbani: 0.6
  Binding of serum 6 to linear peptides of protein M of SARS-CoV Urbani: 0.6
  Binding of serum 6 to looped/cyclic peptides of protein M of SARS-CoV Urbani: 0.5
  Binding of serum 37 to linear peptides of protein M of SARS-CoV Urbani: 0.5
  Binding of serum 37 to looped/cyclic peptides of protein M of SARS-CoV Urbani: 0.7
  Binding of serum 62 to linear peptides of protein M of SARS-CoV Urbani: 0.5
  Binding of serum 62 to looped/cyclic peptides of protein M of SARS-CoV Urbani: 0.6
  Binding of serum London to linear peptides of protein M of SARS-CoV Urbani: 0.4
  Binding of serum London to looped/cyclic peptides of protein M of SARS-CoV Urbani: 0.2
  Binding of serum SARS-green to linear peptides of protein M of SARS-CoV Urbani: 0.5
  Binding of serum SARS-green to looped/cyclic peptides of protein M of SARS-CoV Urbani: 0.3
  Binding of serum SARS-yellow to linear peptides of protein M of SARS-CoV Urbani: 0.2
  Binding of serum SARS-yellow to looped/cyclic peptides of protein M of SARS-CoV Urbani: 0.7
